According to ChEMBL document CHEMBL1201862, “PubChem BioAssay data set” (2004):
The source made the active and inactive calls.

Tests used:
[1] = Fluorescence polarization-based biochemical high throughput dose response assay for activators of the Protein Kinase A-R1A (PKA-R1A) complex. [Related pubchem assays (depositor defined):AID504704, AID504707, AID504799, AID504800]
[2] = Fluorescence polarization-based biochemical high throughput dose response assay for activators of the Protein Kinase A-R2B (PKA-R2B) complex. [Related pubchem assays (depositor defined):AID504700, AID504704, AID504796, AID504797]
[3] = system: HEK293; experiment: cells; assay type: functional, cell-based; details: Homo sapiens
[4] = target: Nuclear receptor subfamily 0 group B member 1 (Homo sapiens, UniProt P51843); experiment: Luminescence-based cell-based high throughput dose response assay for inhibitors of the orphan nuclear receptor subfamily 0, group B, member 1 (DAX1; NR0B1). [Related pubchem assays (depositor defined):AID504766, AID504790]; assay type: functional
Sequence of Nuclear receptor subfamily 0 group B member 1 (P51843 whole entry): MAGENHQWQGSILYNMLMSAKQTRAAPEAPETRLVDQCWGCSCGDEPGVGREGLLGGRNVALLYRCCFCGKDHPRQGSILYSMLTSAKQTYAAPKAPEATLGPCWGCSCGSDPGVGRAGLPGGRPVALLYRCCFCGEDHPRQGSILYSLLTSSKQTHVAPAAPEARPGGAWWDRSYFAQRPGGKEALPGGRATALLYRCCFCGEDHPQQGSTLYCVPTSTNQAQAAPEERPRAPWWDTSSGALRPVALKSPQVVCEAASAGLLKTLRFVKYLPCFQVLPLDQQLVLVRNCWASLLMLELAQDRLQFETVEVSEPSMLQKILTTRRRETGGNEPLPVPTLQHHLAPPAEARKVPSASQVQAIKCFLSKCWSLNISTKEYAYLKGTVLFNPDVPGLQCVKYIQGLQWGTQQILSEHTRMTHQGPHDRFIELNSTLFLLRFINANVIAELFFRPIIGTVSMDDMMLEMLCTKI

[5] = target: T1, Heat shock factor protein 1 (Mus musculus, UniProt P38532); experiment: enhancement of HSF1-driven luciferase signal – cell-based, NIH3T3, luminescence, dose retest, confirmation (AID 435004); assay type: functional;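 note: stress induced by proteasome inhibitor MG132 added 30 min after compound; luciferase reporter driven by HSF1 response element in NIH3T3 cells; actives raise luminescence as potentiators of the MG132 stress response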
T1 sequence (P38532 whole entry): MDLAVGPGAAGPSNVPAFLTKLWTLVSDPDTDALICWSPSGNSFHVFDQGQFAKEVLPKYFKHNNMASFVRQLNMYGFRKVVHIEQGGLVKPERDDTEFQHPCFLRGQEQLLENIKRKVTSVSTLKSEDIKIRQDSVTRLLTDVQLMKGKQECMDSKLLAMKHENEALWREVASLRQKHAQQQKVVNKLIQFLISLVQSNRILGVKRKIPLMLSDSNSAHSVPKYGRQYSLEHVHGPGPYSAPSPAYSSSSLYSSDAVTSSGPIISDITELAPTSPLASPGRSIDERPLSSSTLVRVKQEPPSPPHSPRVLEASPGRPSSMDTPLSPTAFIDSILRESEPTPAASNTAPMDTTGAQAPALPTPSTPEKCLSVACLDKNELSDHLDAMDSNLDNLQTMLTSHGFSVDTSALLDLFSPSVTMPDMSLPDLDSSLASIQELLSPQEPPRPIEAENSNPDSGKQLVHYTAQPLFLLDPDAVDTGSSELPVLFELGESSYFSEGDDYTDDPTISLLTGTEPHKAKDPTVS

[6] = cells; assay type: functional
[7] = system: A-375; experiment: proliferation inhibition in MITF-low A375 cells – cell-based, cherry-pick samples, set 2, counter-screen for MITF modulator project, dose response (AID 540335); assay type: functional; details: Homo sapiens
[8] = non-specific 3'UTR reporter inhibition in Clone20-Shn3RL – cell-based, Renilla luciferase, cherry-picked, counter-screen for Shn3 inhibitor project, dose response (AID 624133); assay type: functional
[9] = target: Heat shock protein HSP 90-alpha (Homo sapiens, UniProt P07900); assay type: functional, organism-based
[10] = target: T2, Microphthalmia-associated transcription factor (Homo sapiens, UniProt O75030); experiment: reducers of TRPM1 reporter luminescence, concentration series – cell-based, SK-MEL-5, cherry-picked, set 3, MITF inhibitor project, dose response (AID 493073); assay type: functional;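 note: SK-MEL-5 melanoma cells with luciferase driven by the MITF target TRPM1 promoter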
T2 sequence (O75030 whole entry): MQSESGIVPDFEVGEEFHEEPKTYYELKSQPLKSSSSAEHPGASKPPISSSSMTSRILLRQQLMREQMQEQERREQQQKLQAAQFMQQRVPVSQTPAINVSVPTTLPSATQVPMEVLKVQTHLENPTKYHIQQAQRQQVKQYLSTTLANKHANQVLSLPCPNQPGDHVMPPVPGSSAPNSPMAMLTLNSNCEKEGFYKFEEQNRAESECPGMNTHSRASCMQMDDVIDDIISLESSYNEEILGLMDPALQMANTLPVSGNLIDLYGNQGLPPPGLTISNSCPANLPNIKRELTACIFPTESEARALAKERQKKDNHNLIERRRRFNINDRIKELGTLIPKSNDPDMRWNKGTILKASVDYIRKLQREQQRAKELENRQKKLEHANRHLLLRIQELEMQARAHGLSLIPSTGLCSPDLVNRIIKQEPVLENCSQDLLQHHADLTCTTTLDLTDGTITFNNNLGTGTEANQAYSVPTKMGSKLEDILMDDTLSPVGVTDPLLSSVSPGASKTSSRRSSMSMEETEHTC

[11] = target: Beta Lactamase (Pseudomonas aeruginosa, UniProt Q932Y6); experiment: BLA reporter interference, concentration series – BLA reporter cells, FRET fluorescence, artefact control for TLR9-MyD88 binding inhibitor project, dose response (AID 588341); assay type: cell-based;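 note: cell based assay in CHO-K1 cells stably expressing beta-lactamase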
Sequence of Beta Lactamase (Q932Y6 whole entry): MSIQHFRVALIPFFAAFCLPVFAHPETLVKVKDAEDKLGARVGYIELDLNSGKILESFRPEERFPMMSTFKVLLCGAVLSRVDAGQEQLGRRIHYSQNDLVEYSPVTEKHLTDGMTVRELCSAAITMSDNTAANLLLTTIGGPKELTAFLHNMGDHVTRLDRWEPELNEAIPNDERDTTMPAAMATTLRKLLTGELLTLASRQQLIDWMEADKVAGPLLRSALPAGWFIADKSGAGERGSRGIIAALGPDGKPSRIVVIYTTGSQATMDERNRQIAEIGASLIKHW

[12] = THP-1 cell cytotoxicity, dose response, cytotoxicity control for non-replicating M. tuberculosis project (AID 489025); assay type: functional
[13] = system: INS1; experiment: INS-1E survival protection against cytokine death – cell-based, luminescence, retest, dose response (AID 449756); assay type: functional; details: Rattus norvegicus;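 note: cell death triggered by IL-1 beta plus TNF-alpha plus IFN-gamma mixture; protective hits raise ATP signal compared with cytokine alone wells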
[14] = system: A-375; experiment: MITF: Counter assay: A375 proliferation Measured in Cell-Based System Using Plate Reader - 2084-03_Inhibitor_Dose_DryPowder_Activity. [Related pubchem assays (depositor defined):AID488944]; assay type: functional; details: Homo sapiens
[15] = loss of viability in HepG2 cells – cell-based, CellTiter-Glo, cherry-picked, cytotoxicity control for Shn3 inhibitor project, dose response (AID 624134); assay type: functional
[16] = system: CHO; experiment: CHO cell viability loss, potency – luminescence, cytotoxicity control for TLR9-MyD88 binding inhibitor project, dose response (AID 588339); assay type: functional, cell-based, hamster; details: Cricetulus griseus;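 note: CHO cells stably coexpressing TLR9 and MyD88 fusions from primary screen; compound exposure lasted 48 hours before viability readout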
[17] = reduction of Shn3 3'UTR-driven luciferase in osteoblasts – cell-based, Clone20 osteoblasts, firefly luciferase, cherry-picked, dose response (AID 624132); assay type: functional;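 note: firefly luciferase luminescence from reporter carrying the Shn3 3'UTR in osteoblasts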
[18] = system: INS1; experiment: INS-1E mitochondrial potential rescue under cytokines – cell-based, JC-1 fluorescence ratio, dry powder, dose response (AID 488931); assay type: functional; details: Rattus norvegicus
[19] = cells; assay type: functional, cell-based
[20] = target: Serine/threonine-protein phosphatase (Candida dubliniensis (strain CD36 / CBS 7987 / NCPF 3949 / NRRLY-17841) (Yeast), UniProt B9W6M3); experiment: blockers of CaCl2-induced CDRE-lacZ signaling – S. cerevisiae, luminescence, secondary, dose response (AID 2388); assay type: functional, cell-based;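 note: yeast reporter cells carrying a calcineurin-responsive lacZ construct stimulated with calcium chloride; luminescent beta-galactosidase reporter signal in whole cells rather than isolated phosphatase activity; potency for inhibition where a drop in reporter signal means calcineurin blockade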
Sequence of Serine/threonine-protein phosphatase (B9W6M3 whole entry): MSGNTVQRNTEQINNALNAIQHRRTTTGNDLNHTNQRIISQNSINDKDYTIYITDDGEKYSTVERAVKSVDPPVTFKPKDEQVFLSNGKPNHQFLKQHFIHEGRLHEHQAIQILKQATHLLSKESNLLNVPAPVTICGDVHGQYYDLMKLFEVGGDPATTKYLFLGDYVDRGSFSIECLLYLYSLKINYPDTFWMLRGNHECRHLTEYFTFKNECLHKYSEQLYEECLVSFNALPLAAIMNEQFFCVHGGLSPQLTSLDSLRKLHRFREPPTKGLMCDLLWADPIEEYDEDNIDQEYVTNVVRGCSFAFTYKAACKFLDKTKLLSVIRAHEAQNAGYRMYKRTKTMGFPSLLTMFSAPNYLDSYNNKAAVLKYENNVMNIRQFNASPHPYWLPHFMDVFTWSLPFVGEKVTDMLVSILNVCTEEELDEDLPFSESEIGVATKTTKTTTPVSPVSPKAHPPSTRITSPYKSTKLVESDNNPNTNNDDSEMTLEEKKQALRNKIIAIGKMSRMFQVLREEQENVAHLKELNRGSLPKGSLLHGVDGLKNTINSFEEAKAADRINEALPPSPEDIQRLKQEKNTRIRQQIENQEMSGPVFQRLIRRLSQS

[21] = target: T3, Rac GTPase-activating protein 1 (Homo sapiens, UniProt Q9H0H5); experiment: blockers of MgcRacGAP-driven Rac1 GTP hydrolysis – biochemical, ADP Hunter fluorescence, primary and confirmatory, confirmation (AID 624330); assay type: functional
T3 sequence (Q9H0H5 whole entry): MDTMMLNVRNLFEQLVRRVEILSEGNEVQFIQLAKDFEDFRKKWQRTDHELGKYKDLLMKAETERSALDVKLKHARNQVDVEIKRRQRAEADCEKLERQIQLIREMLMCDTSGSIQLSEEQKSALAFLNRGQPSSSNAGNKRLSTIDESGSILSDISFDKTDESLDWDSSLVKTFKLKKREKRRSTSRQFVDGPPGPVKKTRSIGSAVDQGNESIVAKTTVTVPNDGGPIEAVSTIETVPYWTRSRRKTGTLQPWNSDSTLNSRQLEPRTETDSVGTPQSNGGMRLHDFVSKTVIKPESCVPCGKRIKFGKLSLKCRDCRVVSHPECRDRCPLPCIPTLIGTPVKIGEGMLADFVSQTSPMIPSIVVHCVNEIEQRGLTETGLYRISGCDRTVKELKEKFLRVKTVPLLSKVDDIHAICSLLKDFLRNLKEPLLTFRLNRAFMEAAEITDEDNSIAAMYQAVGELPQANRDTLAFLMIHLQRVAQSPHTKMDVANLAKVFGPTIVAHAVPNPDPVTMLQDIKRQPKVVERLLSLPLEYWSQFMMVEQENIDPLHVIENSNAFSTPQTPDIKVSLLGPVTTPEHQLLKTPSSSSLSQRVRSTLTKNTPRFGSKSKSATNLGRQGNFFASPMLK

[22] = Luminescence Cell-Based Dose Response HTS to Identify Inhibitors of 5'UTR Stem-Loop Driven Prion Protein mRNA Translation in H4 Neuroglioblastoma Cells. [Related pubchem assays: 1827 (Project Summary), 1813 (Primary HTS)]; assay type: functional
[23] = cells; assay type: functional, cell-based; remark: listed apart in the source
[24] = target: ATP-dependent molecular chaperone HSP82 (Candida albicans (strain WO-1) (Yeast), UniProt C4YTQ8); experiment: steroid-induced GRE reporter decrease in yeast – S. cerevisiae, luminescence, Hsp90 inhibitor project, dose response (AID 2400); assay type: functional, cell-based;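 note: beta-galactosidase luminescence from glucocorticoid response element reporter as proxy for Hsp90 function; inhibitor potency where signal loss means Hsp90 inhibition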
Sequence of ATP-dependent molecular chaperone HSP82 (C4YTQ8 whole entry): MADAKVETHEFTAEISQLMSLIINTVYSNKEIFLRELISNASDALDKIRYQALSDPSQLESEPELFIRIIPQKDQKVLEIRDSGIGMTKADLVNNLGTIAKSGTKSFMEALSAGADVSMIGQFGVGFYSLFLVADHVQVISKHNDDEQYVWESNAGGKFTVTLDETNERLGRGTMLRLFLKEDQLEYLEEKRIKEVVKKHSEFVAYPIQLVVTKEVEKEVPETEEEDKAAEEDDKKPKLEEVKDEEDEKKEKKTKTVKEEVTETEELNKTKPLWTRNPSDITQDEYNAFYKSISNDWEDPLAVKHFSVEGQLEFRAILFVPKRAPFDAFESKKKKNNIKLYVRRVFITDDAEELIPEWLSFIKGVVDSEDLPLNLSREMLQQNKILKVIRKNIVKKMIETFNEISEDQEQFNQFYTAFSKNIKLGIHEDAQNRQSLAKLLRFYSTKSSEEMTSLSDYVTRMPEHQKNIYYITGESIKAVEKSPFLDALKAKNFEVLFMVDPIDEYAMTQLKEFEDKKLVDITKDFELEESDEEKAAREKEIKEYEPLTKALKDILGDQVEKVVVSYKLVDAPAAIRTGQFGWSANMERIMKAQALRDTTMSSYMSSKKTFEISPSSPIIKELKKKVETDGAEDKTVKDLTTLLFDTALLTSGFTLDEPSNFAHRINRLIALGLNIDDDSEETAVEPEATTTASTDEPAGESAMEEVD

[25] = system: HEK293; experiment: EBV LMP1 TES2 canonical NF-kB signalling blockers – cell-based, HEK293, luciferase, cherry-pick, dose response (AID 588343); assay type: functional; details: Homo sapiens
[26] = system: Streptococcus; experiment: GAS UMAA2166 growth inhibition – luminescence, BacTiterGlo, counter-screen for streptokinase expression inhibitor project, dose response (AID 1915); assay type: functional, organism-based;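 note: potency for reduction of bacterial viability or growth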
[27] = system: Streptococcus sp. 'group A'; experiment: Streptococcus pyogenes SK(-)GAS viability under kanamycin – luminescence, BacTiterGlo, confirmation, counter-screen for streptokinase expression inhibitor project, dose response (AID 1900); assay type: functional, organism-based
[28] = luciferase reporter signal suppression in cells – H4 neuroglioma cells, luminescence, dose response (AID 1990); assay type: functional, cell-based
[29] = alpha-synuclein stem-loop luciferase translation blockers – H4 neuroglioma cells, luminescence, confirmation (AID 1988); assay type: functional, cell-based
[30] = fluconazole-exposed Candida albicans growth modulators – fluorescence, retest, confirmation (AID 2467); assay type: functional, cell-based
[31] = NIH-3T3 fibroblast cytotoxicity, dose response, cytotoxicity control, cell-based, fluorescence, Alamar Blue, secondary assay (AID 2327); assay type: functional;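 note: NIH-3T3 mouse fibroblasts cultured with fluconazole at 8 µg/mL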
[32] = target: T4, Streptokinase A (Streptococcus pyogenes serotype M1, UniProt P10520); experiment: viability-normalized secreted streptokinase activity reduction – plasminogen activation absorbance, OD405, dose response (AID 1914); assay type: functional, Streptococcus pyogenes M1 GAS;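 note: secreted streptokinase activity via plasminogen activation per viability signal from cell pellet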
T4 sequence (P10520 whole entry): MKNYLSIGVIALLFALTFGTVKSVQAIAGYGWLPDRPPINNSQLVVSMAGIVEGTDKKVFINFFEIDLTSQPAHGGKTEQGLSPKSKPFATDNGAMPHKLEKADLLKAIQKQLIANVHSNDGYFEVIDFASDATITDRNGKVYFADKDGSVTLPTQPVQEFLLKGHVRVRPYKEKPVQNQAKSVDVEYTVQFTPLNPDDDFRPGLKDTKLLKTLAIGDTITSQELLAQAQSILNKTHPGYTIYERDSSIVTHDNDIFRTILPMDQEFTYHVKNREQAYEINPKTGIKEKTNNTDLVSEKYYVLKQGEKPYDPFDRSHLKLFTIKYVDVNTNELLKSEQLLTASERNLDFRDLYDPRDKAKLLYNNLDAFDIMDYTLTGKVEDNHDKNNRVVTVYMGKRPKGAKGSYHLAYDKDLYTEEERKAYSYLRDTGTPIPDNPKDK

For CCCC(=O)Nc1ncnc2c1ncn2[C@@H]1O[C@@H]2COP(=O)(O)O[C@H]2[C@H]1OC(=O)CCC, the EC50 [1] was 4.48 µM (active) and the EC50 [2] was 5.38 µM (active).
For Cc1cnc(C(=O)OCC(=O)NCCCc2ccccc2)cn1, the IC50 [3] was > 67.5 µM (inactive) and the IC50 [4] was > 67.5 µM (inactive).
In the case of CCOC(=O)COc1ccc2ccccc2c1/C=C/[N+](=O)[O-], the EC50 [5] is reported as 3.33 µM (inconclusive), the IC50 [6] is reported as 2.81 µM (active) and the AC50 [7] is reported as > 35 µM (active). For the same molecule, the AC50 [8] was 12.9 µM (active), the AC50 [9] was 4.28 µM (active) and the AC50 [10] was 8.17 µM (active). The IC50 [11] was 30.5 µM (inactive), the CC50 [12] was 19.1 µM (active) and the AC50 [13] was > 60 µM (inactive). For the same molecule, the AC50 [14] was > 35 µM (active), the AC50 [15] was 20.9 µM (active) and the IC50 [16] was 2.72 µM (active). The AC50 [17] was 5.2 µM (active).
For C[C@@H]1CN([C@@H](C)CO)C(=O)c2cccc(NC(=O)Nc3cccc4ccccc34)c2O[C@H]1CN(C)S(C)(=O)=O, the AC50 [18] was > 195 µM (inactive).
With O=C(N/N=C/c1sc2ccccc2c1O)c1cccc2ccccc12 the EC50 [19] was > 350 µM (not active), the EC50 [20] was > 180 µM (inactive) and the IC50 [21] was 52.9 µM (active). For the same molecule, the EC50 [22] was 10.4 µM (active), the EC50 [23] was 12.5 µM (active) and the AC50 [9] was 14 µM (active). For the same molecule, the EC50 [24] was 9.14 µM (active), the AC50 [13] was 1.1 µM (active) and the AC50 [25] was 5.14 µM (active). For the same molecule, the EC50 [26] was 12.4 µM (active), the EC50 [27] was 3.44 µM (active) and the EC50 [28] was 10.6 µM (active). For the same molecule, the EC50 [29] was 9 µM (active), the EC50 [30] was 0.738 µM (active) and the EC50 [31] was > 160 µM (inactive). For the same molecule, the EC50 [32] was > 150 µM (not active).
